The results in this text go back to patent publication US10670605B2, “Cysteine reactive probes and uses thereof” (The Scripps Research Institute, priority 2015, dated 2020).

Common to all, as to test: Competitive isoTOP-ABPP in situ (fragment-treated cells)
What all share (assay type): cell-based

For experiment [1], the target named is T1, cysteines in MDA-MB-231 and Ramos cells (Homo sapiens, UniProt Q9UPQ0).
T1 sequence (Q9UPQ0 1-1083): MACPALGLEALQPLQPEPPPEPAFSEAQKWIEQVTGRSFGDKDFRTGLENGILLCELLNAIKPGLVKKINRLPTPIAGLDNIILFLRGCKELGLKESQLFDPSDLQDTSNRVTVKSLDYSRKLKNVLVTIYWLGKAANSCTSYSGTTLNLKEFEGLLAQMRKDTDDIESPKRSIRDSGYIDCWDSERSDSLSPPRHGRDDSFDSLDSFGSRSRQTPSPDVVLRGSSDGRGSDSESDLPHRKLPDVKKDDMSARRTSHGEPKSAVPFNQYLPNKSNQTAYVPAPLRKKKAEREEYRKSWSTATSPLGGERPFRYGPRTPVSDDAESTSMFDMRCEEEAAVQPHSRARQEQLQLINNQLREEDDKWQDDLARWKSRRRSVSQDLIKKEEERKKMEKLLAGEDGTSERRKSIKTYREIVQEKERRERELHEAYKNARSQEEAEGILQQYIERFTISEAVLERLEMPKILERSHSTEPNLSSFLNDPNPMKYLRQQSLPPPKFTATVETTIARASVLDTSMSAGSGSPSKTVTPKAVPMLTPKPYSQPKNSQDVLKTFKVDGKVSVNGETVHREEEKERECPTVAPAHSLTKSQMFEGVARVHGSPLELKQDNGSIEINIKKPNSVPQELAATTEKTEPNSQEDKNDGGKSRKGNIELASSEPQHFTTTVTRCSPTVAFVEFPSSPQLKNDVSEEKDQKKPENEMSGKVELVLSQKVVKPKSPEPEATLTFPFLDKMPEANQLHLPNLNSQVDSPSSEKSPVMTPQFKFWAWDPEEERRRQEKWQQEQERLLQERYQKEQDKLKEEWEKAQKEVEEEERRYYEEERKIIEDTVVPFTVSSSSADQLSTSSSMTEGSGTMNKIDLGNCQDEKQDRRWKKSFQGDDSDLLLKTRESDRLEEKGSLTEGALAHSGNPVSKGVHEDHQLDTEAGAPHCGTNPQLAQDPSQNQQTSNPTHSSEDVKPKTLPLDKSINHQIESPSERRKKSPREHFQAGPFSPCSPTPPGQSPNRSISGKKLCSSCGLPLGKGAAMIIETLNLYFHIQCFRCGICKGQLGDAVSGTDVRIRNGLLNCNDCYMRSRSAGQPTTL

Experiment [2] has as its target cysteines in MDA-MB-231 and Ramos cells (Homo sapiens, UniProt Q8NDH3).
For experiment [3], the target named is cysteines in MDA-MB-231 and Ramos cells (Homo sapiens, UniProt Q96RP9). Conditions: for isoTOP-ABPP ratio, cysteine Q96RP9_C153 / isoTOP-ABPP ratio Q96RP9_C153: 200 μM, insitu.
cysteines in MDA-MB-231 and Ramos cells (Homo sapiens, UniProt Q96RP9), sequence (Q96RP9 37-751): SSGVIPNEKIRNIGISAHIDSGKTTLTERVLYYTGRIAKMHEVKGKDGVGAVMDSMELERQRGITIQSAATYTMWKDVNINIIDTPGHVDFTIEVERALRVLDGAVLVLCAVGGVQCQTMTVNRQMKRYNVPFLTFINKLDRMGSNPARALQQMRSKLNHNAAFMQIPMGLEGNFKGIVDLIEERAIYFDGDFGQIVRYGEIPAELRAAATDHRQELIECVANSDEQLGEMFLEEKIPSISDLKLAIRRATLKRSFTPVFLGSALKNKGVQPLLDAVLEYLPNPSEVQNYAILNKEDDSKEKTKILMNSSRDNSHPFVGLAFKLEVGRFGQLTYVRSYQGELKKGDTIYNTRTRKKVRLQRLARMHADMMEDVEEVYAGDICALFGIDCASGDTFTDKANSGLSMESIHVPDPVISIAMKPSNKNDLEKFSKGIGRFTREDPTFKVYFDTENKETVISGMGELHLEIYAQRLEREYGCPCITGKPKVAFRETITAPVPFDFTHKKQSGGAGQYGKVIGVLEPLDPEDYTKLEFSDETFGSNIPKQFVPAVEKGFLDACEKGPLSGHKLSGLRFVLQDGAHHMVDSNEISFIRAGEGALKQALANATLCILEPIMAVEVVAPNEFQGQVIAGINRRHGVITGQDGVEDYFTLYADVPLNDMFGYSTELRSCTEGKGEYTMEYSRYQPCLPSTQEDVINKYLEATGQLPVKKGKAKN
Experiment [4] concerns the target T2, cysteines in MDA-MB-231 and Ramos cells (Homo sapiens, UniProt Q86X76).
T2 sequence (Q86X76 14-327): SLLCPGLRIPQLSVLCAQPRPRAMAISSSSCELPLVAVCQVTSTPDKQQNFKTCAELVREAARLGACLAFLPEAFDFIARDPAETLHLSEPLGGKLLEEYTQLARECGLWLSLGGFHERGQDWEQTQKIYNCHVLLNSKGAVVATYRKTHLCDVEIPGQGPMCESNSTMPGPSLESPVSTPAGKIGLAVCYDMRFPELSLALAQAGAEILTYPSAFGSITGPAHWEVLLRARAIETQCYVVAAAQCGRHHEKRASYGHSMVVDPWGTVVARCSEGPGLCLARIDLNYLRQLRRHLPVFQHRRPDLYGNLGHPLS

Experiment [5] addresses T3, cysteines in MDA-MB-231 and Ramos cells (Homo sapiens, UniProt Q96RU2).
T3 sequence (Q96RU2 1-1077): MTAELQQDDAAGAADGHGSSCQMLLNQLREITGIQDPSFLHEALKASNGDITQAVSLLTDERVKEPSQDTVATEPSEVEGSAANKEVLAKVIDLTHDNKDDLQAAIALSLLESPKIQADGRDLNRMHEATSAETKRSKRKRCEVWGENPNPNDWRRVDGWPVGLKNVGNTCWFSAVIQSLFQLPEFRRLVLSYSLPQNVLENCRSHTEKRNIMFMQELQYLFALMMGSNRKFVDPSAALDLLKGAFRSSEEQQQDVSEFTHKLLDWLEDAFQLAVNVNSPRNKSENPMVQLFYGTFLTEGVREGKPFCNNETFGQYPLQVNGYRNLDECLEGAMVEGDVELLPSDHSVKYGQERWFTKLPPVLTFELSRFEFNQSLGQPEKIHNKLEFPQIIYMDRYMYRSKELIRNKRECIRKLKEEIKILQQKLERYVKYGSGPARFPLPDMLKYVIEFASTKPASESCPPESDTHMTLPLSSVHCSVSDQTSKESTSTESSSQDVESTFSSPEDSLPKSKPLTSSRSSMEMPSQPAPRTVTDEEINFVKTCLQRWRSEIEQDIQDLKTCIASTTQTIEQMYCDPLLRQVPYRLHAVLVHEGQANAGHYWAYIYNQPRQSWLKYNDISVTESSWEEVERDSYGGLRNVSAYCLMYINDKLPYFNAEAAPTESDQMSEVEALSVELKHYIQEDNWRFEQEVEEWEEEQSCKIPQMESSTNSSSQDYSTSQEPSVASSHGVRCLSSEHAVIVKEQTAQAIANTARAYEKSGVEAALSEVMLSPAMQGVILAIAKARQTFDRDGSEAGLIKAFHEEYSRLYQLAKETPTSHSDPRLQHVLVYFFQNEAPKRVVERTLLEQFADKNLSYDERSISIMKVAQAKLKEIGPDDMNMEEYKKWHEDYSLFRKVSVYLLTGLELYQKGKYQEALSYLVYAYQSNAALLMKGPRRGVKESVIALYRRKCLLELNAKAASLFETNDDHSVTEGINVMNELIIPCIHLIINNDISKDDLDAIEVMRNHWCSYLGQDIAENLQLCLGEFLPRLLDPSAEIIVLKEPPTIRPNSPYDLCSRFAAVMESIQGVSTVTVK

cysteines in MDA-MB-231 and Ramos cells (Homo sapiens, UniProt Q8NDH3), sequence (Q8NDH3 whole entry): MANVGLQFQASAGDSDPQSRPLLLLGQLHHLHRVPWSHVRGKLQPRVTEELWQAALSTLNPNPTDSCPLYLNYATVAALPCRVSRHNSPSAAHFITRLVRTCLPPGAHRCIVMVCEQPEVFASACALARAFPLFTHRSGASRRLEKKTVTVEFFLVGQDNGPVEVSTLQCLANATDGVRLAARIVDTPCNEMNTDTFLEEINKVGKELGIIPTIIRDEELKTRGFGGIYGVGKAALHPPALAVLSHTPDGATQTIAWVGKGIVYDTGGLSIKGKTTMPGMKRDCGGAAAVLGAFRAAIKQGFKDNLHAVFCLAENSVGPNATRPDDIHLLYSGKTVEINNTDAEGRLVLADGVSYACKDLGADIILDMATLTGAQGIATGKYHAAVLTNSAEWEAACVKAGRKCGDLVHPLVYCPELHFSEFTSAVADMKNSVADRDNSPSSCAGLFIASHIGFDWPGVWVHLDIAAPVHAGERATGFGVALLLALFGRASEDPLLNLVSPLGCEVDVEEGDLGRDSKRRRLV

In the case of `COc1ccc2c(c1)CCCN2C(=O)CCl` [compound 2], in experiment [1] (200 μM, insitu, 231), the “isoTOP-ABPP reactivity Q9UPQ0_C140 LIMCH1” value was 20.0. Further, the “isoTOP-ABPP reactivity Q8NDH3_C81 NPEPL1” value in experiment [2] (200 μM, insitu, 231) was determined as 20.0.
Turning to `COc1ccc(C2CC(c3cccs3)=NN2C(=O)CCl)cc1` (stereo not shown) [compound 4], in experiment [3] (100 μM in situ 231), the “isoTOP-ABPP reactivity Q96RP9_C153 GFM1” value is on record as 1.0. In addition, in experiment [4] (100 μM in situ 231), the “isoTOP-ABPP reactivity Q86X76_C203 NIT1” value is recorded as 0.7. Also, in experiment [2] (100 μM in situ 231), the “isoTOP-ABPP reactivity Q8NDH3_C81 NPEPL1” value was determined as 20.0. The “isoTOP-ABPP reactivity Q96RU2_C171 USP28” value in experiment [5] (100 μM in situ 231) is on record as 20.0.
Take `COc1cc2c(cc1OC)CN(C(=O)CCl)CC2` [compound 8]: the “isoTOP-ABPP reactivity Q9UPQ0_C140 LIMCH1” value in experiment [1] (200 μM, insitu, 231) was 20.0. The “isoTOP-ABPP reactivity Q8NDH3_C81 NPEPL1” value in experiment [2] (200 μM, insitu, 231) is given as 20.0. Besides, in experiment [5] (200 μM, insitu, 231), the “isoTOP-ABPP reactivity Q96RU2_C171 USP28” value is 1.2.
`O=C(CCl)N1CCN(S(=O)(=O)c2ccccc2F)CC1` [compound 10]: the “isoTOP-ABPP ratio, cysteine Q96RP9_C153” value in experiment [3] (231) amounted to 14.8. Further, in experiment [1] (200 μM, insitu, 231), the “isoTOP-ABPP ratio Q9UPQ0_C140” value was found to be 3.9. Besides, in experiment [2] (200 μM, insitu, 231), the “isoTOP-ABPP ratio, cysteine Q8NDH3_C81” value is reported as 5.7.
For `Cn1cc(S(=O)(=O)N2CCOCC2)cc1C(=O)NC(=O)CCl` [compound 11], in experiment [1] (100 μM in situ 231), the “isoTOP-ABPP ratio Q9UPQ0_C140” value is 1.0. Moreover, the “isoTOP-ABPP ratio, cysteine Q86X76_C203” value in experiment [4] (100 μM in situ 231) is 0.8. In experiment [5] (100 μM in situ 231), the “isoTOP-ABPP ratio, cysteine Q96RU2_C171” value was 2.2.
Consider `O=C(CCl)NC(=O)NC12CC3CC(CC(C3)C1)C2` [compound 12], for which the “isoTOP-ABPP ratio, cysteine Q96RP9_C153” value in experiment [3] (231) is 20.0. Also, the “isoTOP-ABPP ratio Q9UPQ0_C140” value in experiment [1] (200 μM, insitu, 231) is 1.9. The “isoTOP-ABPP ratio, cysteine Q86X76_C203” value in experiment [4] (200 μM, insitu, 231) was found to be 3.9. For the same compound, in experiment [2] (200 μM, insitu, 231), the “isoTOP-ABPP ratio, cysteine Q8NDH3_C81” value is 20.0. For the same compound, the “isoTOP-ABPP ratio, cysteine Q96RU2_C171” value in experiment [5] (200 μM, insitu, 231) was determined as 20.0.
For `O=C(CCl)NCCc1c[nH]c2ccccc12` [compound 13], the “isoTOP-ABPP ratio, cysteine Q96RP9_C153” value in experiment [3] (ramos) was 0.8. Moreover, the “isoTOP-ABPP ratio Q9UPQ0_C140” value in experiment [1] (200 μM, insitu, 231) is 1.1.
For `O=C(CCl)NC12CC3CC(CC(C3)C1)C2` [compound 21], in experiment [3] (231), the “isoTOP-ABPP ratio, cysteine Q96RP9_C153” value worked out at 1.4. Moreover, the “isoTOP-ABPP ratio Q9UPQ0_C140” value in experiment [1] (200 μM, insitu, 231) is given as 0.8. Moreover, in experiment [4] (200 μM, insitu, 231), the “isoTOP-ABPP ratio, cysteine Q86X76_C203” value was 0.8. Also, the “isoTOP-ABPP ratio, cysteine Q8NDH3_C81” value in experiment [2] (200 μM, insitu, 231) is on record as 1.6.
As to `CC(C)CCOCCNC(=O)CCl` [compound 27], the “isoTOP-ABPP ratio Q96RP9_C153” value in experiment [3] (231) worked out at 1.6. Moreover, the “isoTOP-ABPP ratio Q9UPQ0_C140” value in experiment [1] (200 μM, insitu, 231) is given as 0.7. Also, the “isoTOP-ABPP ratio, Q96RU2_C171” value in experiment [5] (200 μM, insitu, 231) is 1.1.
As to `COc1ccccc1OCCNC(=O)CCl` [compound 28], the “isoTOP-ABPP ratio, Q96RU2_C171” value in experiment [5] (200 μM, insitu, 231) was found to be 1.1.
As for `O=C(CCl)N1CCN(CC(=O)N2CCOCC2)CC1` [compound 29], in experiment [3] (ramos), the “isoTOP-ABPP ratio Q96RP9_C153” value is given as 1.2.
Consider `C=CC(=O)N(Cc1cccnc1)c1cc(C(F)(F)F)cc(C(F)(F)F)c1` [compound 31], for which, in experiment [2] (200 μM, insitu, 231), the “isoTOP-ABPP ratio Q8NDH3_C81” value stood at 1.0.
Take `C=CC(=O)Nc1cc(F)c(N2CCN(C(=O)OC(C)(C)C)CC2)c(F)c1` [compound 38]: the “isoTOP-ABPP ratio Q9UPQ0_C140” value in experiment [1] (200 μM, insitu, 231) was 2.5. For the same compound, the “isoTOP-ABPP ratio Q8NDH3_C81” value in experiment [2] (200 μM, insitu, 231) amounted to 2.0. In addition, in experiment [5] (200 μM, insitu, 231), the “isoTOP-ABPP ratio, Q96RU2_C171” value was determined as 0.8.
Consider `Cc1ccc(C=C(C#N)C(=O)NCCN2CCOCC2)cc1` [compound 41], for which the “isoTOP-ABPP ratio Q96RP9_C153” value in experiment [3] (231) amounted to 1.1. The “isoTOP-ABPP ratio Q9UPQ0_C140” value in experiment [1] (200 μM, insitu, 231) is reported as 0.5. Also, in experiment [4] (200 μM, insitu, 231), the “isoTOP-ABPP ratio Q86X76_C203” value worked out at 1.3.
For `CC1CCc2ccccc2N1C(=O)CCl` (stereo not shown) [compound 45], the “isoTOP-ABPP ratio Q9UPQ0_C140” value in experiment [1] (200 μM, insitu, 231) was 20.0. The “isoTOP-ABPP ratio Q86X76_C203” value in experiment [4] (200 μM, insitu, 231) was 20.0.
